From article PMC12702354, “Engineered an ultrasmall curcumin oral nanoformulation restores intestinal integrity and gut microbiota dysbiosis” (Materials Today Bio, 2025)
Like-named read-outs stand apart in the source and are kept apart here.

Assays:
[1] = Stability in SIF (pancreatin + bile salts); format: physicochemical; conditions: 24 h
Protocol: To examine the breakdown of nGM@CUR-UsNF and cGM@CUR-UsNF in SGF and SIF, Fӧrster resonance energy transfer (FRET) analysis was conducted. Formulations co-loaded with HIQ and NR (FRET pairs) were prepared by mixing galactomannan or cGM with HIQ (1 mg/mL) and NR (0.4 mg/mL), followed by sonication 150 W and 25 kHz in an ice-water bath and then filtered using a 0.1 μm membrane. Ultimately, the HIQ/NR@cGM was produced by exposing it to a 253.7 nm UV light at 36 W for 90 min. The control sample of HIQ/NR@GM was also prepared. The PS, PDI, and ZP of the prepared formulations were assessed through dynamic laser scattering. The LE was also determined. The prepared formulations were mixed with SGF or SIF in tubes. […] Fluorescence intensities were captured using a SYNERGY/HTX (BioTek, Germany) with the excitation at 510 nm and emission at 635 nm. The FRET ratio was determined using the formula FRET ratio = INR/(INR + IHIQ), where IHIQ and INR represented the fluorescence intensities of HIQ and NR at 510 nm and 635 nm, respectively, with an excitation wavelength of 450 nm. […] CUR retention was measured using HPLC following the separation of the released drug, while particle size was assessed through DLS analysis. The stability of the polymer was evaluated using gel permeation chromatography and a reducing sugar assay. […]

[2] = Storage stability of UsNFs in MQW over 180 days at 37 °C; format: physicochemical; conditions: 37 ± 1 °C
Protocol: The release kinetics of CUR from the UsNFs was also measured for 24 h in simulated gastric fluid (SGF; pH 2.5) and simulated intestinal fluid (SIF; pH 7.0) at 37 ± 1 °C (Fig. 2F). […] Additionally, the stability of UsNFs, which were dissolved at a concentration of 2 mg/mL in MQW, was also tested over 180 days at a temperature of 37 ± 1 °C (Fig. 2G and H). […] The autoxidation, hydrolysis, and degradation-induced content loss of CUR is a significant issue.

[3] = PK study after oral gavage; format: in vivo, C57BL/6J mice; conditions: 50 mg/kg
[4] = male, C57BL/6J, mouse, CUR in plasma, n = 6
[5] = male, C57BL/6J, mouse, plasma, n = 6

CUR retained [1]: less than 10%
CUR content remaining after storage [2]: 27%
CUR degradation during storage [2]: over 73%
Cmax ([3]; CUR in plasma, n = 6): 7.126 ± 0.317 ng/mL
AUC(0-inf) [3, 4]: 10.4 ± 0.683 ng·h/mL
AUC(0-t) [3, 4]: 7.68 ± 0.218 ng·h/mL
Tmax [3, 5]: 30 min
half-life [3, 5]: 64.6 ± 8.22 min
k el ([3]; male, C57BL/6J, mouse, plasma, n = 6, read-out: Ke (converted)): 5.25e-05 s⁻¹
Cmax ([3]; male, C57BL/6J, mouse, plasma, po, CUR in plasma, n = 6, read-out: Cmax): ~7.13 ng/mL
Bioavailability ([3]; relative to free-CUR, n = 6): 100.00 ± 29.388%
SMILES: COc1cc(/C=C/C(=O)CC(=O)/C=C/c2ccc(O)c(OC)c2)ccc1O [free-CUR, curcumin]
